In the Kinase Knowledgebase extract (Sharma et al. 2016):

These molecules were tested against CDK2 (human) (UniProt P24941) (assay: Enzyme Assay).

Ki [nM] | Compound
< 1000 | CSc1nc(Nc2ccc3c(=O)[nH][nH]c3c2)cc(Nc2cc(C3CC3)[nH]n2)n1
< 1000 | O=C(CCNc1cc(C2CC2)[nH]n1)Oc1ccc2c(=O)[nH][nH]c2c1
< 1000 | O=c1[nH][nH]c2cc(SCC3CCCC3Nc3ccccn3)ccc12 (stereo not given)
< 1000 | Cc1cnc(NC(=O)CCCc2ccc3c(=O)[nH][nH]c3c2)s1
< 1000 | Cc1cc(Nc2cc(COCCN(C)C)nc(Sc3ccc4c(=O)[nH][nH]c4c3)n2)n[nH]1
< 1000 | O=C(CCOc1ccc2c(=O)[nH][nH]c2c1)Nc1ccccn1
< 1000 | Cc1cc(Nc2ccnc(Cc3ccc4c(=O)[nH][nH]c4c3)c2)n[nH]1
< 1000 | COC(C)(C)c1cc(Nc2cc(C3CC3)[nH]n2)nc(Sc2ccc3c(=O)[nH][nH]c3c2)n1
< 1000 | Cc1cc(Nc2nc(Sc3ccc4c(=O)[nH][nH]c4c3)nc3cc(O)ccc23)n[nH]1
< 1000 | CN1CCN(c2cc(Nc3cc(C4CC4)[nH]n3)nc(Sc3ccc4c(=O)[nH][nH]c4c3)n2)CC1
< 1000 | O=c1[nH][nH]c2cc(CCC3CCCC3Nc3nccnn3)ccc12 (stereo not given)
< 1000 | O=c1[nH][nH]c2cc(SCCONc3nccnn3)ccc12
< 1000 | O=c1[nH][nH]c2cc(SCCCNc3ccccn3)ccc12
< 1000 | O=c1[nH][nH]c2cc(SCC3CCCC3Nc3nccnn3)ccc12 (stereo not given)
< 1000 | Cc1cc(Nc2cc(C3CC3)[nH]n2)nc(Sc2ccc3c(=O)[nH][nH]c3c2)n1
< 1000 | O=C(CC(=O)Nc1ccccn1)Nc1ccc2c(=O)[nH][nH]c2c1
< 1000 | O=c1[nH][nH]c2cc(NCCC(Nc3cc(C4CC4)[nH]n3)c3ccccc3)ccc12 (stereo not given)

Ki [nM] | Compound
< 1000 | O=C(CCCc1ccc2c(=O)[nH][nH]c2c1)Nc1cc(C2CC2)[nH]n1
< 1000 | O=c1[nH][nH]c2cc(CCCCNc3cc(C4CC4)[nH]n3)ccc12
< 1000 | O=C(CC(=O)Oc1ccc2c(=O)[nH][nH]c2c1)Nc1cc(C2CC2)[nH]n1
< 1000 | Cc1cnc(NC2CCC(Oc3ccc4c(=O)[nH][nH]c4c3)C2)s1 (stereo not given)
< 1000 | Cc1cc(Nc2cc(-c3ccccc3)nc(Sc3ccc4c(=O)[nH][nH]c4c3)n2)n[nH]1
< 1000 | Cc1cnc(NC(CCSc2ccc3c(=O)[nH][nH]c3c2)c2ccccc2)s1 (stereo not given)
< 1000 | Cn1cnc(NC(=O)CCSc2ccc3c(=O)[nH][nH]c3c2)c1
< 1000 | O=c1[nH][nH]c2cc(NCCONc3nccnn3)ccc12
< 1000 | O=c1[nH][nH]c2cc(SCCCNc3nccnn3)ccc12
< 1000 | Cc1cnc(NC(=O)CCOc2ccc3c(=O)[nH][nH]c3c2)s1
< 1000 | Cc1cc(Nc2cc(N3CCN(C)CC3)nc(Sc3ccc4c(=O)[nH][nH]c4c3)n2)n[nH]1
< 1000 | Cn1cnc(NC(CCNc2ccc3c(=O)[nH][nH]c3c2)c2ccccc2)c1 (stereo not given)
< 1000 | O=c1[nH][nH]c2cc(NC3COCC(Nc4ccccn4)C3)ccc12 (stereo not given)
< 1000 | Cc1cc(Nc2cccc(Sc3ccc4c(=O)[nH][nH]c4c3)n2)n[nH]1
< 1000 | Cc1cnc(NCCONc2ccc3c(=O)[nH][nH]c3c2)s1
< 1000 | Cc1cc(Nc2cccc(Oc3ccc4c(=O)[nH][nH]c4c3)n2)n[nH]1
< 1000 | CC(C)(c1ccc2c(=O)[nH][nH]c2c1)C1CCC(Nc2ccccn2)C1 (stereo not given)

More lines, now with the values behind:

Compound | Ki [nM]
O=c1[nH][nH]c2ccc(-c3nc4c(c(Nc5n[nH]c(C6CC6)n5)n3)CCCCC4)c(C(F)(F)F)c12 | < 1000
O=c1[nH][nH]c2cc(COc3cc(Nc4n[nH]c5ccccc45)ccn3)ccc12 | < 1000
CC(=O)N1CCC(c2cc(Nc3n[nH]c4ccccc34)nc(-c3ccc4[nH][nH]c(=O)c4c3C(F)(F)F)n2)CC1 | < 1000
O=c1[nH][nH]c2cc(C(F)(F)F)c(-c3nc(Nc4cc(C5CC5)[nH]n4)nc(-c4ccncc4)n3)cc12 | < 1000
Cc1cc(Nc2nc(-c3cc4c(=O)[nH][nH]c4cc3Cl)cc3ccccc23)n[nH]1 | < 1000
CC(C)NC(=O)c1cc(Nc2nc(-c3ccc4[nH][nH]c(=O)c4c3)nc3ccccc23)n[nH]1 | < 1000
O=c1[nH][nH]c2ccc(-c3nc(Nc4n[nH]c5ccccc45)cc(Oc4ccccc4)n3)c(C(F)(F)F)c12 | < 1000
COC[C@H]1CCN(C(=O)c2cc(Nc3nc(-c4ccc5[nH][nH]c(=O)c5c4)nc4ccccc34)n[nH]2)C1 | < 1000
Cc1cnc(Nc2cccc(Nc3ccc4c(=O)[nH][nH]c4c3)c2)s1 | < 1000
Cc1cc(Nc2nc(NCc3ccc4c(=O)[nH][nH]c4c3)cc3ccccc23)n[nH]1 | < 1000
O=c1[nH][nH]c2ccc(-c3nc(Nc4n[nH]cc4-c4ccccc4)c4ccccc4n3)c(C(F)(F)F)c12 | < 1000
Cc1cc(Nc2cc(-c3ccccc3)nc(Nc3ccc4c(=O)[nH][nH]c4c3)n2)n[nH]1 | < 1000
Cc1cc(Nc2nc(Cc3ccc4c(=O)[nH][nH]c4c3)nc3c2CCCC3)n[nH]1 | < 1000
Cc1nc(Nc2nc(-c3ccc4[nH][nH]c(=O)c4c3C(N)=O)nc3ccccc23)n[nH]1 | < 1000
NCCOc1cc(Nc2n[nH]c3ccccc23)nc(-c2cc3c(=O)[nH][nH]c3cc2C(F)(F)F)c1 | < 1000
O=c1[nH][nH]c2cc(CC3COCC(Nc4cc(C5CC5)[nH]n4)C3)ccc12 (stereo not given) | < 1000
CN1CCN(C(=O)OCc2ccccc2)CC1c1cc(Nc2n[nH]c3ccccc23)nc(-c2ccc3[nH][nH]c(=O)c3c2C(F)(F)F)n1 (stereo not given) | < 1000
O=c1[nH][nH]c2cc(Oc3nc(Nc4cc(C5CC5)[nH]n4)c4ccccc4n3)ccc12 | < 1000

Compound | Ki [nM]
Cc1cc(Nc2cc(Oc3ccc4c(=O)[nH][nH]c4c3)nc3ccccc23)n[nH]1 | < 1000
O=c1[nH][nH]c2cc(NC3CCCC(Nc4cc(C5CC5)[nH]n4)C3)ccc12 (stereo not given) | < 1000
CC(C)(C)c1cc(Nc2nc(-c3ccc4[nH][nH]c(=O)c4c3C(F)(F)F)nc3ccccc23)n[nH]1 | < 1000
O=c1[nH][nH]c2ccc(-c3nc(Nc4n[nH]c(-c5ccccc5)c4-c4ccccc4)c4ccccc4n3)c(C(F)(F)F)c12 | < 1000
O=c1[nH][nH]c2ccc(-c3cnnc(Nc4cc(C5CCCC5)[nH]n4)n3)cc12 | < 1000
Cc1cc(Nc2cc(-c3ccccc3)[nH]n2)nc(COc2ccc3c(=O)[nH][nH]c3c2)n1 | < 1000
O=c1[nH][nH]c2cc(Nc3nc(Nc4n[nH]c5ncccc45)c4ccccc4n3)ccc12 | < 1000
Cc1cc(Nc2cc(-c3cc4c(=O)[nH][nH]c4cc3Cl)nc3c2CCCC3)n[nH]1 | < 1000
O=c1[nH][nH]c2cc(Nc3cccc(Nc4cc(C5CC5)[nH]n4)c3)ccc12 | < 1000
CCc1cc(Nc2nc(-c3ccncc3)nc(-c3ccc4[nH][nH]c(=O)c4c3)n2)n[nH]1 | < 1000
CCc1cc(Nc2cnnc(-c3ccc4[nH][nH]c(=O)c4c3)n2)n[nH]1 | < 1000
O=c1[nH][nH]c2cc(Cl)c(-c3nc(Nc4n[nH]c5ccccc45)nc(-c4cccnc4)n3)cc12 | < 1000
O=c1[nH][nH]c2ccc(-c3nc(Nc4n[nH]c5c(F)cc(F)cc45)c4ccncc4n3)c(Cl)c12 | < 1000
O=c1[nH][nH]c2cc(OC(CCNc3ccccn3)Cc3ccccc3)ccc12 (stereo not given) | < 1000
O=c1[nH][nH]c2cc(OC3CCCC(Nc4cc(C5CC5)[nH]n4)C3)ccc12 (stereo not given) | < 1000
Cc1cc(Nc2cc(-c3ccccc3)nc(Oc3ccc4c(=O)[nH][nH]c4c3)n2)n[nH]1 | < 1000
O=c1[nH][nH]c2cc(Nc3nc(Nc4cc(C5CC5)[nH]n4)c4ccccc4n3)ccc12 | < 1000
O=c1[nH][nH]c2cc(Nc3cccc(Nc4nccnn4)c3)ccc12 | < 1000
